From patent US4694069A, “Kibdelosporangium aridum SK&F-AAD-609” (SmithKline Beckman Corporation, priority 1985, dated 1987)
In brackets after ≈: the same amount, converted by molar mass. Like-named read-outs stand apart in the source and are kept apart here. Bridge positions count the residues as written; N and C are the ends. Square brackets hold non-standard residues; d marks the D form. Peptide text beside a SMILES is read from it. * marks the point of attachment. Ileψ(thiazoline)Cys = CC[C@H](C)[C@H](N)C1=N[C@H](C(=O)*)CS1; dOrn = NCCC[C@@H](N)C(=O)O

Tests used:
Clostridium difficile = test: In vitro MIC, standard microtiter assay; type: cell-based
Excerpt: (§1) In vitro minimum inhibitory concentrations (MIC) of the AAD-609 complex and of Factors A, B, CC2 and D, using standard microtiter assay procedures, against a number of microorganisms are reported in Table A, which follows.

Escherichia coli 12140 = test: In vitro MIC, standard microtiter assay; type: cell-based
Excerpt: as §1

S. epidermidis 2265 = test: In vitro MIC, standard microtiter assay; type: cell-based
Excerpt: as §1

S. epidermidis 2479 [1] = test: In vitro MIC, standard microtiter assay; type: cell-based
Excerpt: as §1

S. epidermidis 2683 = test: In vitro MIC, standard microtiter assay; type: cell-based
Excerpt: as §1

[2] = test system: S. epidermidis 651 (methicillin resistant strain); test: In vitro MIC, standard microtiter assay; type: cell-based
Excerpt: as §1

[3] = test system: Salmonella gallinarum BC-595; test: In vitro MIC, standard microtiter assay; type: cell-based
Excerpt: as §1

[4] = test system: Staphylococcus aureus HH127; test: In vitro MIC, standard microtiter assay; type: cell-based
Excerpt: as §1

[5] = test system: Streptococcus faecalis 657; test: In vitro MIC, standard microtiter assay; type: cell-based
Excerpt: as §1

S. aureus 209P = test: In vitro MIC, standard microtiter assay; type: cell-based, Staphylococcus aureus
Excerpt: as §1

S. aureus 674 = test: In vitro MIC, standard microtiter assay; type: cell-based, Staphylococcus aureus
Excerpt: as §1

S. aureus 675 = test: In vitro MIC, standard microtiter assay; type: cell-based, Staphylococcus aureus
Excerpt: as §1

[6] = test system: S. aureus 910 (methicillin resistant strain); test: In vitro MIC, standard microtiter assay; type: cell-based, Staphylococcus aureus
Excerpt: as §1

S. faecalis 34358 [7] = test: In vitro MIC, standard microtiter assay; type: cell-based, Streptococcus faecalis
Excerpt: as §1

[8] = test system: S. aureus 2620 (methicillin resistant strain); test: MIC; type: cell-based
Excerpt: as §1

[9] = 30:70 acetonitrile:water
[10] = mouse, in vivo
[11] = test system: S. aureus 2620 (methicillin resistant strain); test: Mouse protection test; type: in vivo
Excerpt: (§2) in mouse protection tests^1
(§3) ^1 Mice dosed 1 and 5 H post infection s.c.; ED50, mg/kg.

S. aureus HH127 = test: Mouse protection test; type: in vivo
Excerpt: as §2, §3

S. epidermidis 2479 [12] = test: Mouse protection test; type: in vivo
Excerpt: as §2, §3

[13] = test system: S. epidermidis 651 (methicillin resistant strain); test: Mouse protection test; type: in vivo
Excerpt: as §2, §3

S. faecalis 34358 [14] = test: Mouse protection test; type: in vivo
Excerpt: as §2, §3

[15] = pKa by potentiometric titration; conditions: 30:70 acetonitrile:water, apparent values
pigs = conditions: pig, in vivo; cited from earlier work
SK&F-AAD-609 = test: Susceptibility of SK&F-AAD-609 to antibiotics (diffusion method, BBL susceptibility disks); type: cell-based, Kibdelosporangium aridum subsp. largum; conditions: disk 30 μg; 28° C., one week
Experimental: Susceptibility of SK&F-AAD-609 to antibiotics was examined by placing BBL susceptibility disks on nutrient agar plates seeded with SK&F-ADD-609 as an agar overlay. Plates were placed at 4° C. for one hour to permit diffusion of the anitbiotics and, subsequently, incubated at 28° C. Diameters of the zones of inhibition were measured after incubation for one week.
Susceptibility to Antibiotics. […] Chlortetracycline (5 μg) produced 17-18 mm zones of inhibition; tetracycline (5 μg) 9-12 mm zones; rifampin (5 μg) 10-12 mm zones; novobiocin (5 μg) 30-35 mm zones. All zones of inhibition contained at least a few resistant colonies.

[16] = comparators, source not given; cited from earlier work
[17] = Table B, methicillin resistant strain
[18] = Table A, methicillin resistant strain
[19] = mice dosed 1 and 5 h post infection s.c., methicillin resistant strain
[20] = mice dosed 1 and 5 h post infection s.c.
[21] = AAD-216A averaged previous results

CCCCCCCCCC(=O)NC1C(Oc2c3cc4cc2Oc2c(Cl)cc(cc2Cl)C(O)C2NC(=O)C(NC(=O)C4NC(=O)C4NC(=O)C(NC(=O)C(NC)c5ccc(O)c(c5)Oc5cc(O)c(Cl)c4c5)C(O)c4ccc(c(Cl)c4)O3)c3ccc(O)c(c3)-c3c(OC4OC(CO)C(O)C(O)C4O)cc(O)cc3C(C(=O)O)NC2=O)OC(CO)C(O)C1O (stereo not shown) [AAD-609 A]
MIC (Clostridium difficile; Clostridioides difficile, Table A, read-out: MIC): 0.5 µg/mL (≈ 0.282 µM)
MIC (Escherichia coli 12140; Escherichia coli, 12140, Table A, read-out: MIC): > 100 µg/mL
MIC (S. epidermidis 2265; Staphylococcus epidermidis, 2265, Table A, read-out: MIC): 25 µg/mL (≈ 14.1 µM)
MIC (S. epidermidis 2479 [1]; Staphylococcus epidermidis, 2479, Table A, read-out: MIC): 12.5 µg/mL (≈ 7.04 µM)
MIC (S. epidermidis 2479 [1]; Table B): 12.5 µg/mL (≈ 7.04 µM)
MIC (S. epidermidis 2683; Staphylococcus epidermidis, 2683, Table A, read-out: MIC): 24 µg/mL (≈ 13.5 µM)
MIC ([2]; Staphylococcus epidermidis, Table A, methicillin resistant strain, read-out: MIC): 50 µg/mL (≈ 28.2 µM)
MIC [2, 17]: 50 µg/mL (≈ 28.2 µM)
MIC ([3]; Salmonella enterica, GALLINARUM, Table A, read-out: MIC): > 100 µg/mL
MIC ([4]; Staphylococcus aureus, HH127, Table A, read-out: MIC): 1.6 µg/mL (≈ 0.901 µM)
MIC ([4]; Table B): 1.6 µg/mL (≈ 0.901 µM)
MIC ([5]; Enterococcus faecalis, 657, Table A, read-out: MIC): 0.4 µg/mL (≈ 0.225 µM)
MIC (S. aureus 209P; Staphylococcus aureus, 209P, Table A, read-out: MIC): 0.4 µg/mL (≈ 0.225 µM)
MIC (S. aureus 674; Staphylococcus aureus, 674, Table A, read-out: MIC): 0.8 µg/mL (≈ 0.451 µM)
MIC (S. aureus 675; Staphylococcus aureus, 675, Table A, read-out: MIC): 6.3 µg/mL (≈ 3.55 µM)
MIC ([6]; Staphylococcus aureus, Table A, methicillin resistant strain, read-out: MIC): 1.6 µg/mL (≈ 0.901 µM)
MIC (S. faecalis 34358 [7]; Enterococcus faecalis, 34358, Table A, read-out: MIC): 0.4 µg/mL (≈ 0.225 µM)
MIC (S. faecalis 34358 [7]; Table B): 0.4 µg/mL (≈ 0.225 µM)
MIC ([8]; Staphylococcus aureus, Table B, methicillin resistant strain, read-out: MIC): 2 µg/mL (≈ 1.13 µM)
pKa (A) carboxyl on aglycone [9]: 3.4
pKa (C) amino group on aglycone [9]: 7.1
Elimination half-life [10]: 1.93 h
Maximum serum concentration [10]: 90 µg/mL

CNC1C(=O)NC2C(=O)NC(C(=O)NC3C(=O)NC4C(=O)NC(C(=O)NC(C(=O)O)c5cc(O)cc(OC6OC(CO)C(O)C(O)C6O)c5-c5cc4ccc5O)C(O)c4cc(Cl)c(c(Cl)c4)Oc4cc3cc(c4OC3OC(CO)C(O)C(O)C3NC(=O)CCCCCCCCC(C)C)Oc3ccc(cc3Cl)C2O)c2cc(cc(O)c2Cl)Oc2cc1ccc2O (stereo not shown) [AAD-609 C]
MIC (Clostridium difficile; Table A): 1 µg/mL (≈ 0.554 µM)
MIC (Escherichia coli 12140; Table A): > 100 µg/mL
MIC (S. epidermidis 2265; Table A): 25 µg/mL (≈ 13.9 µM)
MIC (S. epidermidis 2479 [1]; Table A): 12.5 µg/mL (≈ 6.93 µM)
MIC (S. epidermidis 2479 [1]; Table B): 12.5 µg/mL (≈ 6.93 µM)
MIC (S. epidermidis 2683; Table A): 25 µg/mL (≈ 13.9 µM)
MIC [2, 18]: 25 µg/mL (≈ 13.9 µM)
MIC [2, 17]: 25 µg/mL (≈ 13.9 µM)
MIC ([3]; Table A): > 100 µg/mL
MIC ([4]; Table A): 1.6 µg/mL (≈ 0.887 µM)
MIC ([4]; Table B): 1.6 µg/mL (≈ 0.887 µM)
MIC ([5]; Table A): 0.2 µg/mL (≈ 0.111 µM)
MIC (S. aureus 209P; Table A): 0.8 µg/mL (≈ 0.444 µM)
MIC (S. aureus 674; Table A): 1.6 µg/mL (≈ 0.887 µM)
MIC (S. aureus 675; Table A): 6.3 µg/mL (≈ 3.49 µM)
MIC [6, 18]: 1.6 µg/mL (≈ 0.887 µM)
MIC (S. faecalis 34358 [7]; Table A): 0.2 µg/mL (≈ 0.111 µM)
MIC (S. faecalis 34358 [7]; Table B): 0.2 µg/mL (≈ 0.111 µM)
MIC [8, 17]: 4 µg/mL (≈ 2.22 µM)
ED50 [11, 19]: 8.4 mg/kg
ED50 (S. aureus HH127; [20]): 8.5 mg/kg
ED50 (S. epidermidis 2479 [12]; [20]): 22 mg/kg
ED50 [13, 19]: 50 mg/kg
ED50 (S. faecalis 34358 [14]; [20]): 50 mg/kg
pKa (A) carboxyl on aglycone [15, 21]: 3.6
pKa (C) amino group on aglycone [15, 21]: 7.2
pKa (D) phenolic OH ([15]; first phenolic OH, AAD-216A averaged previous results): 8.4
pKa (D) phenolic OH ([15]; fourth phenolic OH): 11.6
pKa (D) phenolic OH ([15]; second phenolic OH, AAD-216A averaged previous results): 9.9
pKa (D) phenolic OH ([15]; third phenolic OH, AAD-216A averaged previous results): 10.6

CC[C@H](C)[C@H](N)C1=N[C@H](C(=O)N[C@@H](CC(C)C)C(=O)N[C@H](CCC(=O)O)C(=O)N[C@H](C(=O)N[C@H]2CCCCNC(=O)[C@H](CC(N)=O)NC(=O)[C@@H](CC(=O)O)NC(=O)[C@H](Cc3cnc[nH]3)NC(=O)[C@@H](Cc3ccccc3)NC(=O)[C@H]([C@@H](C)CC)NC(=O)[C@@H](CCCN)NC2=O)[C@@H](C)CC)CS1 [Bacitracin, bacitracin] ({Ileψ(thiazoline)Cys}-L[dE]IK[dOrn]I[dF]H[dD]N; lactam 4-C)
Growth promotion in pigs (in words) (pigs): known growth promoter in pigs

CN[C@H](CC(C)C)C(=O)N[C@H]1C(=O)N[C@@H](CC(N)=O)C(=O)N[C@H]2C(=O)N[C@H]3C(=O)N[C@H](C(=O)N[C@H](C(=O)O)c4cc(O)cc(O)c4-c4cc3ccc4O)[C@H](O)c3ccc(c(Cl)c3)Oc3cc2cc(c3O[C@@H]2O[C@H](CO)[C@@H](O)[C@H](O)[C@H]2O[C@H]2C[C@](C)(N)[C@H](O)[C@H](C)O2)Oc2ccc(cc2Cl)[C@H]1O [Vancomycin, vancomycin]
Susceptibility (diffusion method) (SK&F-AAD-609): resistant
MIC (Clostridium difficile; Clostridioides difficile): 2 µg/mL (≈ 1.38 µM)
MIC (Escherichia coli 12140; Escherichia coli, 12140): > 100 µg/mL
MIC (S. epidermidis 2265; Staphylococcus epidermidis, 2265): 1.6 µg/mL (≈ 1.1 µM)
MIC (S. epidermidis 2479 [1]; Staphylococcus epidermidis, 2479): 3.1 µg/mL (≈ 2.14 µM)
MIC (S. epidermidis 2479 [1]; Table B): 3.1 µg/mL (≈ 2.14 µM)
MIC (S. epidermidis 2683; Staphylococcus epidermidis, 2683): 3.1 µg/mL (≈ 2.14 µM)
MIC ([2]; Staphylococcus epidermidis): 3.1 µg/mL (≈ 2.14 µM)
MIC [2, 17]: 3.1 µg/mL (≈ 2.14 µM)
MIC ([3]; Salmonella enterica, GALLINARUM): 100 µg/mL (≈ 69 µM)
MIC ([4]; Staphylococcus aureus, HH127): 1.6 µg/mL (≈ 1.1 µM)
MIC ([4]; Table B): 1.6 µg/mL (≈ 1.1 µM)
MIC ([5]; Enterococcus faecalis, 657): 3.1 µg/mL (≈ 2.14 µM)
MIC (S. aureus 209P; Staphylococcus aureus, 209P): 0.8 µg/mL (≈ 0.552 µM)
MIC (S. aureus 674; Staphylococcus aureus, 674): 1.6 µg/mL (≈ 1.1 µM)
MIC (S. aureus 675; Staphylococcus aureus, 675): 3.1 µg/mL (≈ 2.14 µM)
MIC ([6]; Staphylococcus aureus): 1.6 µg/mL (≈ 1.1 µM)
MIC (S. faecalis 34358 [7]; Enterococcus faecalis, 34358): 3.1 µg/mL (≈ 2.14 µM)
MIC (S. faecalis 34358 [7]; Table B): 3.1 µg/mL (≈ 2.14 µM)
MIC ([8]; Staphylococcus aureus): 2 µg/mL (≈ 1.38 µM)
ED50 ([11]; Staphylococcus aureus, sc): 6.7 mg/kg
ED50 (S. aureus HH127; Staphylococcus aureus, HH127, sc): 1.4 mg/kg
ED50 (S. epidermidis 2479 [12]; Staphylococcus epidermidis, 2479, sc): 4.1 mg/kg
ED50 ([13]; Staphylococcus epidermidis, sc): 4.8 mg/kg
ED50 (S. faecalis 34358 [14]; Enterococcus faecalis, 34358, sc): 12.5 mg/kg
Isoelectric point [16]: 8.2
Elimination half-life (Pharmacokinetics in mice; mice): 0.333 h
Cmax (Pharmacokinetics in mice; mouse, serum): 30000 ng/mL
